The nature of experiment [1]: Autofluorescence of heated paraformaldehyde fixed paraffin embedded brain tissue. The following applies: 5% ascorbic acid; 70° C., 30 minutes; 488 nm excitation; versus tissue heated only in water. From the text:
Images are captured at same exposure and time.

For another experiment, the system named is Angiotensin I. The experiment in a line: Mass spectrometry of formalin treated Angiotensin I after heating with aldehyde scavenging compounds. The following applies: 5% compound, 95° C., 45 minutes. The procedure:
Angiotensin I is treated with formalin at room temperature for 48 hours. […] Mass-spectrometry is used to analyze the compositions of the Angiotensin I before and after treatment by each compound. Samples of Angiotensin I before (FIG. 11A) and after (FIG. 11B) formalin treatments are used as the controls for the experiment. Peaks at m/z 1296 represent unmodified Angiotensin I. Peaks at m/z 1308 represent Angiotensin I with 1 methylene unit. Peaks at m/z 1320 represent Angiotensin I with 2 methylene units. Peaks at m/z 1338 represent Angiotensin I with 1 methylene unit and 1 hydroxymethylene group. Peaks at m/z 1350 represent Angiotensin I with 2 methylene units and 1 hydroxymethylene group.

The next experiment has as its system ACTH (18-39) peptide. Kind of experiment: Mass spectrometry of formalin treated ACTH (18-39) peptide after heating with formaldehyde scavenging agents. To be noted: 5% compound, 98° C. for 45 minutes as printed with the result (method says 90° C.). The procedure:
ACTH (18-39) peptide is treated with formalin at room temperature for 48 hours (FIG. 12A). […] The composition of the formalin treated ACTH after each treatment is analyzed using mass spectrometry. The results shown in FIGS. 12A-12D are used to investigate the ability of the agents to reverse formaldehyde adducts. […] Only a small amount of ACTH with 3 methylene units is detected.

The test system of experiment [2] is collagen IV. The experiment in a line: Antigen retrieval and immunodetection of collagen IV in paraformaldehyde fixed tissues (general method). The following applies: 0.05% maleic anhydride pretreatment; compared with TBST, low pH sodium citrate, pepsin (FIGS. 2A-2D). The procedure: The solution is heated to about 70° C. to about 95° C. for about 30 minutes. The ensuing chemical reaction enables the unmasking or retrieval of the chemical epitopes. The formaldehyde-fixed tissue is placed into the heated solution for about 30 minutes and then washed. The tissues can then be stained to detect the protein of interest.

The next experiment has as its system blood vessels. Kind of experiment: Antigen retrieval in paraformaldehyde fixed vascular tissue, visualization of blood vessels. The following applies: paraformaldehyde fixed tissue heated in solution of compound (FIGS. 4A-4E). The source says: Paraformaldehyde fixed tissue samples are heated in solutions of compounds prepared as described in Example 1 and the blood vessels in the tissue are visualized.

For experiment [3], the system named is Collagen IV. The experiment in a line: Immunohistochemical staining of Collagen IV on formalin fixed paraffin embedded mouse brain sections after antigen retrieval with formaldehyde scavengers and enhancer. The following applies: Table 8; 0.05% maleic acid alone or with aniline, concentrations in label; 45 minutes at 95° C. On the set-up: key: − being non-reactive; Immunoreactivity was scored on a scale of − to +++; Immunoreactivity was scored on a scale of − to +++; +++ being highly reactive. The procedure: 12-month-old C57Bl6J mice were housed under controlled environment conditions on a condition al 12 hour light dark cycle. Following sacrifice, brains were post-fixed in 4% paraformaldehyde for 72 hours at […] and then transferred to 70% ethanol solution where they were stored at 4° C. Tissue was paraffin-processed using convention dehydration and embedding, and then sectioned at 5 μm intervals.
Tissues were deparaffinized and rehydrated. Slides were placed in a plastic Coplin jar containing either distilled water or a combination of formaldehyde scavengers in combination with an enhancer. Jars were covered with a loose fitting screw cap and heated in a pressure cooker for 45 minutes at 95° C. After heating, the Coplin jars were removed and allowed to cool and rinsed in TBST for five minutes.
Immunohistochemical staining was performed using a three-step immunostaining technique using the ABC method. Briefly, all incubations were performed as follows: 1) primary antibodies were incubated overnight at 4° C., 2) secondary antibodies were incubated for 10 minutes at room temperature, 3) streptavidin-conjugated enzyme was incubated for 10 minutes at room temperature, 4) peroxidase substrate was incubated for 1 minute.

The next experiment deals with GAPDH. Kind of experiment: Dot blot of GAPDH in formaldehyde treated tissues. The following applies: maleic acid 1.6% to 12.8%, 95° C. for 30 minutes (FIG. 6B).
The test system of experiment [4] is collagen IV. The experiment in a line: Fluorescent enhancement after antigen retrieval with addition of Triton, Collagen IV detection of blood vessels. To be noted: 0.5% Triton X-100 added to 5.0% ascorbic acid solution; 70° C., 30 minutes; 488 nm excitation; versus without Triton X-100. The source says:
Images are captured using 488 nm excitation.

Experiment [5] relates to Collagen IV. Kind of experiment: Antigen retrieval in adult human brain vasculature, Collagen IV staining. The following applies: paraformaldehyde fixed paraffin embedded adult human brain tissue (FIG. 7). The procedure: Paraformaldehyde fixed paraffin embedded tissue from adult human brain is treated with 2,3-dimethylmaleic acid as an antigen retrieval method as described.

Entries after “also recorded” stand apart in the source; their conditions may differ.

Turning to `O=C1O[C@H]([C@@H](O)CO)C(O)=C1O` [ascorbic acid], the tissue autofluorescence entry in experiment [1] is reported as “dramatically reduces visible autofluorescence; also recorded: reduction of autofluorescence”. The “retrieval of formalin adducts of Angiotensin I” value in the experiment on Angiotensin I is on record as “significant retrieval of formalin adducts”. Besides, the “conversion of modified ACTH (1, 2 or 3 methylene groups) into unmodified ACTH (m/z 2465)” value in the experiment with ACTH (18-39) peptide is recorded as “convert almost all the modified ACTH”.
As to `O=C1C=CC(=O)O1` [maleic anhydride], in the experiment on collagen IV [2], the “antigen retrieval and immunodetection of collagen IV” value is “Superior antigen retrieval and immunodetection”. The “antigen retrieval with visualization of the blood vessels” value in the experiment with blood vessels is “successful antigen retrieval”.
Regarding `O=C(O)/C=C\C(=O)O` [0.05% Maleic acid, Maleic acid], the “Result (immunoreactivity, Collagen IV staining)” value with Collagen IV [3] is reported as “+”. In addition, the “antigen retrieval with visualization of the blood vessels” value in the experiment with blood vessels is “successful antigen retrieval”. In the experiment on GAPDH, the “detection of GAPDH (dot blot)” value is listed as “parallel increase in the detection of GAPDH”. For the same compound, in the experiment on Angiotensin I, the “amount of Angiotensin I with 2 methylene units (m/z 1320)” value is “significantly reduce” and the “content of unmodified Angiotensin I (m/z 1296)” value is reported as “higher content of unmodified Angiotensin I”. In addition, the “conversion of modified ACTH (1, 2 or 3 methylene groups) into unmodified ACTH (m/z 2465)” value in the experiment with ACTH (18-39) peptide is reported as “convert almost all the modified ACTH”.
As to Triton X-100, the “staining evenness and fluorescence intensity after antigen retrieval” value in the experiment with collagen IV [4] was “significant improvement in staining evenness and intensity; also recorded: enhancement of fluorescence”.
With `C/C(C(=O)O)=C(\C)C(=O)O` [2,3-dimethylmaleic acid], in the experiment on Collagen IV [5], the “detection of blood vessels using Collagen IV” value was “Blood vessels were detected”.

The values above are taken from US10746637B2, “Aldehyde scavenging agent for retrieving elements from fixed tissue” (University of Houston System, priority 2013, dated 2020).
